In paper PMC12094199 (Science Advances, 2025) one finds IC50 data, which are given here for 1 compound.

One series in a line: Cell survival assay. The following applies: human, HEK-293 cells. In kind it is cell-based.
The subject of another series is U87MG cells. Briefly: Cell survival assay. The following applies: Homo sapiens, U-87 MG, 48 h, read-out: IC50 (cytotoxicity). In kind it is cell-based.

As for `CC(=O)O[C@H]1C(=O)[C@@]2(C)[C@H]([C@H](OC(=O)c3ccccc3)[C@]3(O)C[C@H](OC(=O)[C@H](O)[C@@H](NC(=O)c4ccccc4)c4ccccc4)C(C)=C1C3(C)C)[C@]1(OC(C)=O)CO[C@@H]1C[C@@H]2O` [PTX, paclitaxel], in “Cell survival assay”, inhibition was half-maximal at 27.8 ± 3.3 nM (IC50 at 48 h). Also, the IC50 in the series on U87MG cells was determined as 218 ± 54.2 nM.

Usually IC50 stands for the concentration that inhibits the measured activity by half.
